{"source": "paper PMC10899790", "about": "“A bromodomain-independent mechanism of gene regulation by the BET inhibitor JQ1: direct activation of nuclear receptor PXR” (Nucleic Acids Research, 2023)", "key": {"[1]": {"tested_on": "CYP3A4", "settings": "cited from earlier work"}, "[2]": {"tested_on": "HepG2 cells", "experiment": "Cytotoxicity assay (CellTiter-Glo)", "format": "cell-based, human", "settings": "HepG2, 24 h", "protocol": "HepG2 cells (1 × 10^4/well in 25 μl phenol red-free DMEM supplemented with 5% charcoal/dextran-treated FBS) were plated and treated as in the transactivation assays. After 24 h compound treatment, the CellTiter-Glo Luminescent Cell Viability Assay (Promega) and an EnVision microplate reader were used to assess cytotoxicity. DMSO wells with cells served as negative controls, and wells without cells served as positive controls. The averaged luminescence signal of the wells without cells was subtracted from the luminescence signals of all other wells, and the background subtracted values were normalized to DMSO-treated wells containing cells to obtain percent cell viability."}, "[3]": {"experiment": "LC–MS/MS test of JQ1 stability in crystallization solution", "format": "physicochemical", "settings": "1 μM JQ1, crystallization solution pH 7.4, 20°C", "protocol": "An Echo 650 Acoustic Liquid Handler was used to dispense 50 nl/well of 1 mM JQ1 into 96-well assay plates (Corning Inc., one plate per time point, six replicate wells per time point). Crystallization solution (50 μl) was added to each well to yield final concentrations of 1 μM JQ1 and 0.1% DMSO. […] This composition matched the final composition of a crystallization drop containing a 1:1 ratio of protein to reservoir solution. To the 0-day plate, 100 μl cold acetonitrile (ACN) containing 400 ng/ml warfarin (Fluka Chemical Corporation) as the internal standard was immediately added to each well. The remaining plates were incubated at 20°C for 1–8 days followed by quenching with 100 μl cold ACN containing 400 ng/ml warfarin. Quenched samples were sealed and stored at -20°C until analysis. On the day of analysis, plates were thawed, shaken at 600 rpm for 10 min, and centrifuged at 2000 × g for 10 min. The supernatants (20 μl) were transferred to a new analytical 96-well plate (Corning Inc.) and diluted with 180 μl 50% ACN in Milli-Q water. Chromatographic separation was performed on an ACQUITY UPLC BEH C18 column (1.7 μm, 2.1 mm × 50 mm) (Waters Corporation) using the Triple Quad 6500 System (AB Sciex). The injection volume was 7 μl. […] Data were acquired using Analyst Software (AB Sciex, version 1.6.3) and analyzed using MultiQuant Software (AB Sciex, version 3.0.3)."}, "[4]": {"tested_on": "CMV promoter", "experiment": "CMV-Renilla luciferase reporter", "format": "cell-based, human", "settings": "HepG2, 24 h; fold change relative to DMSO"}, "[5]": {"biological_target": "T1, PXR LBD (Homo sapiens, UniProt O75469)", "T1 construct": "GST-PXR LBD protein (cat. # PV4841) were purchased from Thermo Fisher Scientific; purchased Thermo Fisher Scientific PV4841", "T1 sequence (O75469 146-433 limits assumed)": "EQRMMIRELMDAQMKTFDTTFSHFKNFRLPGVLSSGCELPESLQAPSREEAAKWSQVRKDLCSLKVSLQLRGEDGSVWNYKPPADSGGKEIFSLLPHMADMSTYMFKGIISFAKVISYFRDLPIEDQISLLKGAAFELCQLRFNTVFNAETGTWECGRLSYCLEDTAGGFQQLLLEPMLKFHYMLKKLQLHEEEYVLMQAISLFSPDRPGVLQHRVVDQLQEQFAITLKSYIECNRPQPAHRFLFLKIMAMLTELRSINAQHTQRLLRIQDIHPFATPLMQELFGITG", "experiment": "TR-FRET PXR LBD ligand binding assay", "settings": "TR-FRET competition with BODIPY FL vindoline", "protocol": "The TR-FRET PXR LBD ligand binding assay measures binding of PXR ligands by competition with a fluorescently labeled ligand (BODIPY FL vindoline) (Supplementary Figure S3) and was performed as previously described with minor modifications ([24]). […] BODIPY FL vindoline (15 μl/well, 133.3 nM in assay buffer) was dispensed into 384-well low-volume black assay plates. An Echo 650 Acoustic Liquid Handler then dispensed 60 nl/well of compound stocks or DMSO."}}, "note": "“Also recorded” adds a separate entry of the source.", "data": [{"smiles": "Cc1sc2c(c1C)C(c1ccc(Cl)cc1)=N[C@@H](CC(=O)OC(C)(C)C)c1nnc(C)n1-2", "note": "[JQ1, (+)-JQ1]", "values": [{"measurement": "CYP3A4 substrate", "setting": "[1]", "result": "is a CYP3A4 substrate"}, {"measurement": "cytotoxicity (cell viability)", "setting": "[2]", "result": "exhibited cytotoxicity at the concentrations required to activate the CYP3A4-luciferase reporter"}, {"measurement": "stability in the crystal growth condition", "setting": "[3]", "result": "does not degrade over a period of eight days"}, {"measurement": "CMV-Renilla luciferase reporter expression", "setting": "[4]", "result": "robustly activated Renilla luciferase expression from a CMV promoter"}, {"measurement": "binding to purified PXR LBD (binding potency)", "setting": "[5]", "result": "comparable to rifampicin in binding potencies; also recorded: JQ1 > birabresib > CPI-203"}]}]}
